Columns and labels:
[1] = target: T1, PDE3A catalytic domain (PDE3Acat) (Homo sapiens, UniProt Q14432); experiment: Phosphodiesterase inhibitory activity, recombinant PDE3Acat, [3H]cAMP; type: biochemical; conditions: 30° C. 20 minutes, read-out: IC50 (μmol/L) PDE3
T1 construct: isolate the cDNA of a PDE3A catalytic domain; made in house; host or cells: Sf9 insect cells (baculovirus, Bac-to-Bac / Gateway)

[2] = target: T2, PDE4Bcat (Homo sapiens, UniProt Q07343); experiment: Phosphodiesterase inhibitory activity, recombinant PDE4Bcat, [3H]cAMP; type: biochemical; conditions: 30° C. 20 minutes, read-out: IC50 (μmol/L) PDE4
T2 construct: made in house; host or cells: Sf9 insect cells (baculovirus, Bac-to-Bac / Gateway)
T2 sequence (Q07343 330-659 limits assumed): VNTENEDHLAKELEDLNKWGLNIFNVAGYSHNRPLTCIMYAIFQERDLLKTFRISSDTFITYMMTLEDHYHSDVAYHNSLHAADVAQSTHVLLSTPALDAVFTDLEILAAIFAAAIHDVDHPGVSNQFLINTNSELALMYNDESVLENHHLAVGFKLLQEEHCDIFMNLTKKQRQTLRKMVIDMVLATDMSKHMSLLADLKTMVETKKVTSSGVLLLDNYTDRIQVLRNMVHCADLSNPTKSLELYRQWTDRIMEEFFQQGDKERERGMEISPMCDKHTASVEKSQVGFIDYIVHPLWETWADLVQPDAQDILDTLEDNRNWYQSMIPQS

[3] = tested on: histamine-induced bronchoconstriction in guinea pigs; experiment: Histamine-induced bronchoconstriction reaction in guinea pigs; type: in vivo, guinea pig; conditions: Cavia porcellus, iv, 0.5 min, compound 0.3 mg/kg i.v., measured 30 seconds after administration, histamine 12.5 μg/kg i.v., read-out: Inhibition rate (histamine-induced bronchoconstriction)
Method: Guinea pigs were anesthetized with pentobarbital (30 mg/kg, i.p.). A cannula for intravenous administration, a cannula for collecting blood and measuring blood pressure, and a tracheal cannula were inserted into the left external jugular vein, right internal carotid artery, and trachea, respectively. The guinea pigs were maintained on artificial respiration under conditions of 60 times/min and 10 mL/kg/stroke. The overflowing air from the side branch of the tracheal cannula was measured by a bronchospasm transducer (Ugo-Basile) and recorded on a computer via Power Lab (ADInstruments Japan). The guinea pigs were immobilized with gallamine (10 mg/kg, i.v.), and histamine (12.5 μg/kg, i.v.) was administered at 10-minute intervals. After the histamine-induced bronchoconstriction became stable, the compound (0.3 mg/kg, i.v.) was administered. The histamine-induced bronchoconstriction reaction was measured 30 seconds after the compound administration to examine the bronchoconstriction inhibitory activity of the compound. The bronchoconstriction was recorded as the airflow value, and the results were represented by the ratio of the maximum value of the histamine-induced airflow 30 seconds after administration to the maximum value of the airflow before administration. Also, the test compounds dissolved in DMSO were used. Further, the indications were as follows: inhibition rate≧90% (+++), 90%>inhibition rate≧80% (++), and 80%>inhibition rate≧60% (+).

T1 sequence (Q14432 674-1093 limits assumed): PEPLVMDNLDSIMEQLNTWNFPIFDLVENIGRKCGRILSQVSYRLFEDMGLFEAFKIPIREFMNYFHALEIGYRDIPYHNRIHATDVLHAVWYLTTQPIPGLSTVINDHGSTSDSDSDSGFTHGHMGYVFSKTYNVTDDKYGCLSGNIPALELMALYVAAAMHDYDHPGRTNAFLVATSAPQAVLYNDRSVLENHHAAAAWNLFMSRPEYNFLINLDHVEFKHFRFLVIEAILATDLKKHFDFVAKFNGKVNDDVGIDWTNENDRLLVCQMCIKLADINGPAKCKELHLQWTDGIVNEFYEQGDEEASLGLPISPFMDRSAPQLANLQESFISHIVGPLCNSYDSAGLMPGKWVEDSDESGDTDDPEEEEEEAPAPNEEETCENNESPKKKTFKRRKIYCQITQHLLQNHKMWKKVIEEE

Compound	IC50 [1]	IC50 [2]	inhibition in vivo at 0.3 mg/kg [3]
COc1ccc(C2=NN(CCCCOc3ccc(C4=NNC(=O)CC4)c(F)c3F)C(=O)C2(C)C)n2cc(C(F)(F)F)nc12 [Example 235, 2-[4-[2,3-Difluoro-4-(6-oxo-1,4,5,6-tetrahydropyridazin-3-yl)phenoxy]butyl]-5-(8-methoxy-2-trifluoromethylimidazo[1,2-a]pyridin-5-yl)-4,4-dimethyl-2,4-dihydro-pyrazol-3-one]	< 0.01 µmol/L	< 0.01 µmol/L	80 to 90%
COc1ccc(C2=NN(CCCCOc3ccc(C4=NNC(=O)CC4C)cc3)C(=O)C2(C)C)c2cccnc12 (stereo not drawn) [Example 212, 5-(8-Methoxyquinolin-5-yl)-2-[4-[4-(4-methyl-6-oxo-1,4,5,6-tetrahydropyridazin-3-yl)phenoxy]butyl]-4,4-dimethyl-2,4-dihydro-pyrazol-3-one]	< 0.01 µmol/L	0.01 to 0.1 µmol/L	≥ 90%
COc1ccc(C2=NN(CCCCOc3ccc(C4=NNC(=O)CC4)c(F)c3F)C(=O)C2(C)C)c2nc(C(F)(F)F)nn12 [Example 226, 2-[4-[2,3-Difluoro-4-(6-oxo-1,4,5,6-tetrahydropyridazin-3-yl)phenoxy]butyl]-5-(5-methoxy-2-trifluoromethyl-[1,2,4]triazolo[1,5-a]pyridin-8-yl)-4,4-dimethyl-2,4-dihydro-pyrazol-3-one]	< 0.01 µmol/L	0.01 to 0.1 µmol/L	
COc1ccc(C2=NN(CCCCOc3ccc(C4=NNC(=O)CC4C)c(F)c3F)C(=O)C2(C)C)c2nc(C(F)(F)F)nn12 (stereo not drawn) [Example 225, 2-[4-[2,3-Difluoro-4-(4-methyl-6-oxo-1,4,5,6-tetrahydropyridazin-3-yl)phenoxy]butyl]-5-(5-methoxy-2-trifluoromethyl-[1,2,4]triazolo[1,5-a]pyridin-8-yl)-4,4-dimethyl-2,4-dihydro-pyrazol-3-one]	< 0.01 µmol/L	0.01 to 0.1 µmol/L	
CCc1ccc2c(C3=NN(CCCCOc4ccc(C5=NNC(=O)C5(C)C)cc4OC)C(=O)C3(C)C)ccc(OC)c2n1 [Example 204, 5-(2-Ethyl-8-methoxyquinolin-5-yl)-2-[4-[2-methoxy-4-(4,4-dimethyl-5-oxo-4,5-dihydro-1H-pyrazol-3-yl)phenoxy]butyl]-4,4-dimethyl-2,4-dihydro-pyrazol-3-one]	0.1 to 1 µmol/L	0.1 to 1 µmol/L	
CCc1ccc2c(C3=NN(CCCCOc4ccc(C5=NNC(=O)C5(C)C)cc4)C(=O)C3(C)C)ccc(OC)c2n1 [Example 201, 5-(2-Ethyl-8-methoxyquinolin-5-yl)-2-[4-[4-(4,4-dimethyl-5-oxo-4,5-dihydro-1H-pyrazol-3-yl)phenoxy]butyl]-4,4-dimethyl-2,4-dihydro-pyrazol-3-one]	0.1 to 1 µmol/L	0.01 to 0.1 µmol/L	
COc1ccc(C2=NN(CCCCOc3ccc(C4=NNC(=O)C4(C)C)c(F)c3F)C(=O)C2(C)C)c2cc(C(F)(F)F)oc12 [Example 217, 2-[4-[2,3-Difluoro-4-(4,4-dimethyl-5-oxo-4,5-dihydro-1H-pyrazol-3-yl)phenoxy]butyl]-5-(7-methoxy-2-trifluoromethylbenzofuran-4-yl)-4,4-dimethyl-2,4-dihydro-pyrazol-3-one]	0.1 to 1 µmol/L	< 0.01 µmol/L	
COc1ccc(C2=NN(CCCCOc3ccc(C4=NNC(=O)C4(C)C)c(F)c3F)C(=O)C2(C)C)c2sc(C(F)(F)F)nc12 [Example 230, 2-[4-[2,3-Difluoro-4-(4,4-dimethyl-5-oxo-4,5-dihydro-1H-pyrazol-3-yl)phenoxy]butyl]-5-(4-methoxy-2-trifluoromethylbenzo[d]thiazol-7-yl)-4,4-dimethyl-2,4-dihydro-pyrazol-3-one]	0.01 to 0.1 µmol/L	< 0.01 µmol/L	
CCc1cc2c(C3=NN(CCCCOc4ccc(C5=NNC(=O)CC5C)c(F)c4F)C(=O)C3(C)C)ccc(OC)n2c1 (stereo not drawn) [Example 231, 5-(2-Ethyl-5-methoxyindolidin-8-yl)-2-[4-[2,3-difluoro-4-(4-methyl-6-oxo-1,4,5,6-tetrahydropyridazin-3-yl)phenoxy]butyl]-4,4-dimethyl-2,4-dihydro-pyrazol-3-one]	< 0.01 µmol/L	0.1 to 1 µmol/L	
COc1ccc(C2=NN(CCCCOc3ccc(C4=NNC(=O)CC4)c(F)c3F)C(=O)C2(C)C)c2cc(C(F)(F)F)oc12 [Example 216, 2-[4-[2,3-Difluoro-4-(6-oxo-1,4,5,6-tetrahydropyridazin-3-yl)phenoxy]butyl]-5-(7-methoxy-2-trifluoromethylbenzofuran-4-yl)-4,4-dimethyl-2,4-dihydro-pyrazol-3-one]	< 0.01 µmol/L	< 0.01 µmol/L	
CCc1ccc2c(C3=NN(CCCCOc4ccc(C5=NNC(=O)CC5C)cc4OC)C(=O)C3(C)C)ccc(OC)c2n1 (stereo not drawn) [Example 208, 5-(2-Ethyl-8-methoxyquinolin-5-yl)-2-[4-[2-methoxy-4-(4-methyl-6-oxo-1,4,5,6-tetrahydropyridazin-3-yl)phenoxy]butyl]-4,4-dimethyl-2,4-dihydro-pyrazol-3-one]	0.01 to 0.1 µmol/L	0.1 to 1 µmol/L	

Continued, in another order:

IC50 [1]	IC50 [2]	Compound	inhibition in vivo at 0.3 mg/kg [3]
< 0.01 µmol/L	0.01 to 0.1 µmol/L	COc1ccc(C2=NN(CCCCOc3ccc(C4=NNC(=O)CC4C)c(F)c3F)C(=O)C2(C)C)c2ccc(C)nc12 (stereo not drawn) [Example 196, 2-[4-[2,3-Difluoro-4-(4-methyl-6-oxo-1,4,5,6-tetrahydropyridazin-3-yl)phenoxy]butyl]-5-(8-methoxy-2-methylquinolin-5-yl)-4,4-dimethyl-2,4-dihydro-pyrazol-3-one]	≥ 90%
< 0.01 µmol/L	0.01 to 0.1 µmol/L	CCc1cc2c(C3=NN(CCCCOc4ccc(C5=NNC(=O)CC5)c(F)c4F)C(=O)C3(C)C)ccc(OC)n2c1 [Example 232, 5-(2-Ethyl-5-methoxyindolidin-8-yl)-2-[4-[2,3-difluoro-4-(6-oxo-1,4,5,6-tetrahydropyridazin-3-yl)phenoxy]butyl]-4,4-dimethyl-2,4-dihydro-pyrazol-3-one]	
< 0.01 µmol/L	< 0.01 µmol/L	COc1ccc(C2=NN(CCCCOc3ccc(C4=NNC(=O)CC4C)c(F)c3F)C(=O)C2(C)C)c2[nH]c(C(F)(F)F)nc12 (stereo not drawn) [Example 221, 2-[4-[2,3-Difluoro-4-(4-methyl-6-oxo-1,4,5,6-tetrahydropyridazin-3-yl)phenoxy]butyl]-5-(4-methoxy-2-trifluoromethyl-1H-benzo[d]imidazol-7-yl)-4,4-dimethyl-2,4-dihydro-pyrazol-3-one]	≥ 90%
< 0.01 µmol/L	< 0.01 µmol/L	COc1ccc(C2=NN(CCCCOc3ccc(C4=NNC(=O)CC4C)c(F)c3F)C(=O)C2(C)C)c2sc(C(F)(F)F)nc12 (stereo not drawn) [Example 228, 2-[4-[2,3-Difluoro-4-(4-methyl-6-oxo-1,4,5,6-tetrahydropyridazin-3-yl)phenoxy]butyl]-5-(4-methoxy-2-trifluoromethylbenzo[d]thiazol-7-yl)-4,4-dimethyl-2,4-dihydro-pyrazol-3-one]	80 to 90%
0.01 to 0.1 µmol/L	0.1 to 1 µmol/L	CCc1cc2c(C3=NN(CCCCOc4ccc(C5=NNC(=O)C5(C)C)c(F)c4F)C(=O)C3(C)C)ccc(OC)n2c1 [Example 233, 5-(2-Ethyl-5-methoxyindolidin-8-yl)-2-[4-[2,3-difluoro-4-(4,4-dimethyl-5-oxo-4,5-dihydro-1H-pyrazol-3-yl)phenoxy]butyl]-4,4-dimethyl-2,4-dihydro-pyrazol-3-one]	
< 0.01 µmol/L	0.1 to 1 µmol/L	COc1ccc(C2=NN(CCCCOc3ccc(C4=NNC(=O)CC4C)cc3)C(=O)C2(C)C)c2ccc(C(C)C)nc12 (stereo not drawn) [Example 195, 5-(8-Methoxy-2-isopropylquinolin-5-yl)-2-[4-[4-(4-methyl-6-oxo-1,4,5,6-tetrahydropyridazin-3-yl)phenoxy]butyl]-4,4-dimethyl-2,4-dihydro-pyrazol-3-one]	
< 0.01 µmol/L	< 0.01 µmol/L	COc1ccc(C2=NN(CCCCOc3ccc(C4=NNC(=O)CC4C)c(F)c3F)C(=O)C2(C)C)c2cc(C(F)(F)F)oc12 (stereo not drawn) [Example 218, 2-[4-[2,3-Difluoro-4-(4-methyl-6-oxo-1,4,5,6-tetrahydropyridazin-3-yl)phenoxy]butyl]-5-(7-methoxy-2-trifluoromethylbenzofuran-4-yl)-4,4-dimethyl-2,4-dihydro-pyrazol-3-one]	
0.01 to 0.1 µmol/L	0.1 to 1 µmol/L	COc1ccc(C2=NN(CCCCOc3ccc(C4=NNC(=O)C4(C)C)c(F)c3F)C(=O)C2(C)C)c2nc(C(F)(F)F)nn12 [Example 227, 2-[4-[2,3-Difluoro-4-(4,4-dimethyl-5-oxo-4,5-dihydro-1H-pyrazol-3-yl)phenoxy]butyl]-5-(5-methoxy-2-trifluoromethyl-[1,2,4]triazolo[1,5-a]pyridin-8-yl)-4,4-dimethyl-2,4-dihydro-pyrazol-3-one]	
< 0.01 µmol/L	0.01 to 0.1 µmol/L	CCc1ccc2c(C3=NN(CCOc4ccc(C5=NNC(=O)CC5C)c(F)c4F)C(=O)C3(C)C)ccc(OC)c2n1 (stereo not drawn) [Example 242, 5-(2-Ethyl-8-methoxyquinolin-5-yl)-2-[4-[2,3-difluoro-4-(4-methyl-6-oxo-1,4,5,6-tetrahydropyridazin-3-yl)phenoxy]ethyl]-4,4-dimethyl-2,4-dihydro-pyrazol-3-one]	

— patent publication US20100130738A1 (priority 2007, published 2010)
